Measured values as given in patent publication US6274715A, “Tricyclic erythromycin derivatives” (priority 1997, dated 2001).
Converted amounts (≈) assume the structure as drawn.

Assays:
Assay type in all cases: cell-based
CANDIDA ALBICANS CCH 442 = assay: In vitro antibacterial activity, MIC, BHI agar dilution; settings: C. albicans CCH 442, unit assumed
[1] = system: STAPHYLOCOCCUS AUREUS CMX 642A; assay: as above; settings: S. aureus CMX 642A, unit assumed
[2] = system: KLEBSIELLA PNEUMONIAE ATCC 8045; assay: as above; settings: K. pneumoniae ATCC 8045, unit assumed
PSEUDOMONAS CEPACIA 296I = assay: as above; settings: P. cepacia 296I, unit assumed
[3] = system: ENTEROBACTER AEROGENES ATCC 13048; assay: as above; settings: E. aerogenes ATCC 13048, unit assumed
[4] = system: STAPHYLOCOCCUS AUREUS 1775; assay: as above; settings: S. aureus 1775, unit assumed
[5] = system: PSEUDOMONAS AERUGINOSA DPHD-2862; assay: as above; settings: P. aeruginosa DPHD-2862, unit assumed
[6] = system: STAPHYLOCOCCUS AUREUS A5177; assay: as above; settings: S. aureus A5177, unit assumed
[7] = system: STAPHYLOCOCCUS AUREUS CMX 553; assay: as above; settings: S. aureus CMX 553, unit assumed
[8] = system: STREPTOCOCCUS PYOGENES PIU 2548; assay: as above; settings: S. pyogenes PIU 2548, unit assumed
ESCHERICHIA COLI H560 = assay: as above; settings: E. coli H560, unit assumed
[9] = system: MYCOBACTERIUM SMEGMATIS ATCC 114; assay: as above; settings: M. smegmatis ATCC 114, unit assumed
STR[…] 508 = assay: as above; settings: S. agalactiae CMX 508, unit assumed
Method in brief: (§1)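 Agar dilution in BHI: plates inoculated with 1:100 dilutions of organisms (1:10 for Micrococcus and Streptococcus), incubated 20-24 h at 35-37° C, then inspected for the lowest inhibitory concentration against a drug-free growth control.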

M[…] ATCC 9341 = assay: as above; settings: M. luteus ATCC 9341, unit assumed
Method in brief: as §1

EN[…] ATCC 8043 = assay: as above; settings: E. faecium ATCC 8043, unit assumed
Method in brief: as §1

M[…] ATCC 4698 = assay: as above; settings: M. luteus ATCC 4698, unit assumed
Method in brief: as §1

[10] = system: STAPHYLOCOCCUS AUREUS A-5278; assay: as above; settings: S. aureus A-5278, unit assumed
[11] = system: PSEUDOMONAS AERUGINOSA BMH10; assay: as above; settings: P. aeruginosa BMH10, unit assumed
[12] = system: PSEUDOMONAS AERUGINOSA K799/WT; assay: as above; settings: P. aeruginosa K799/WT, unit assumed
[13] = system: STREPTOCOCCUS BOVIS A-5169; assay: as above; settings: S. bovis A-5169, unit assumed
[14] = system: PROVIDENCIA STUARTII CMX 640; settings: P. stuartii CMX 640; BHI agar; unit assumed
[15] = system: PSEUDOMONAS AERUGINOSA DPHD-5263; assay: In vitro antibacterial activity, MIC, BHI agar dilution; settings: P. aeruginosa DPHD-5263, unit assumed
[16] = system: PSEUDOMONAS AERUGINOSA K799/61; assay: as above; settings: P. aeruginosa K799/61, unit assumed
[17] = system: STAPHYLOCOCCUS EPIDERMIDIS 3519; settings: S. epidermidis 3519; BHI agar; unit assumed
ESCHERICHIA COLI JUHL = settings: E. coli JUHL; BHI agar; unit assumed
ESCHERICHIA COLI SS = assay: In vitro antibacterial activity, MIC, BHI agar dilution; settings: E. coli SS, unit assumed
[18] = system: PSEUDOMONAS AERUGINOSA 5007; assay: as above; settings: P. aeruginosa 5007, unit assumed
[19] = system: STAPHYLOCOCCUS AUREUS NCTC10649M; assay: as above; settings: S. aureus NCTC10649M, unit assumed
ESCHERICHIA COLI DC-2 = assay: as above; settings: E. coli DC-2, unit assumed
[20] = system: STAPHYLOCOCCUS AUREUS ATCC 6538P; assay: as above; settings: S. aureus ATCC 6538P, 35-37° C., 20 to 24 hours, unit assumed
[21] = system: STREPTOCOCCUS PYOGENES EES61; assay: as above; settings: S. pyogenes EES61, unit assumed
ESCHERICHIA COLI KNK 437 = settings: E. coli KNK 437; BHI agar; unit assumed
[22] = system: STREPTOCOCCUS PYOGENES 930; assay: In vitro antibacterial activity, MIC, BHI agar dilution; settings: S. pyogenes 930, unit assumed

Row | SMILES | MIC (CANDIDA ALBICANS CCH 442) [µg/mL] | MIC [1] [µg/mL] | MIC [2] [µg/mL] | MIC (PSEUDOMONAS CEPACIA 296I) [µg/mL] | MIC [3] [µg/mL] | MIC [4] [µg/mL] | MIC [5] [µg/mL] | MIC [6] [µg/mL] | MIC [7] [µg/mL] | MIC [8] [µg/mL] | MIC (ESCHERICHIA COLI H560) [µg/mL] | MIC [9] [µg/mL] | MIC (STR[…] 508) [µg/mL] | MIC (M[…] ATCC 9341) [µg/mL] | MIC (EN[…] ATCC 8043) [µg/mL] | MIC (M[…] ATCC 4698) [µg/mL] | MIC [10] [µg/mL] | MIC [11] [µg/mL] | MIC [12] [µg/mL] | MIC [13] [µg/mL] | other results
1 | CC[C@H]1OC(=O)[C@H](C)C(=O)[C@H](C)[C@@H](O[C@@H]2O[C@H](C)C[C@H](N(C)C)[C@H]2O)[C@](C)(OC)C[C@@H](C)C2=N[C@@H](COCc3ccccc3)CN3C(=O)O[C@@]1(C)[C@H]3[C@H]2C [Example 89] | > 100 | 0.39 (≈ 0.515 µM) | > 100 | 25 (≈ 33 µM) | > 100 | > 100 | > 100 | 0.39 (≈ 0.515 µM) | 0.39 (≈ 0.515 µM) | 0.2 (≈ 0.264 µM) | 25 (≈ 33 µM) | 0.78 (≈ 1.03 µM) | 0.01 (≈ 0.0132 µM) | 0.05 (≈ 0.066 µM) | 0.1 (≈ 0.132 µM) | 0.39 (≈ 0.515 µM) | > 100 | > 100 | > 100 | 0.01 (≈ 0.0132 µM) | MIC [14]: > 100 µg/mL; MIC [15]: 100 µg/mL (≈ 132 µM); MIC [16]: 1.56 µg/mL (≈ 2.06 µM); MIC [17]: 0.39 µg/mL (≈ 0.515 µM); MIC (ESCHERICHIA COLI JUHL): 100 µg/mL (≈ 132 µM); MIC (ESCHERICHIA COLI SS): 0.39 µg/mL (≈ 0.515 µM); MIC [18]: > 100 µg/mL; MIC [19]: 0.39 µg/mL (≈ 0.515 µM); MIC (ESCHERICHIA COLI DC-2): 100 µg/mL (≈ 132 µM); MIC [20]: 0.39 µg/mL (≈ 0.515 µM); MIC [21]: 0.02 µg/mL (≈ 0.0264 µM); MIC (ESCHERICHIA COLI KNK 437): 100 µg/mL (≈ 132 µM); MIC [22]: 100 µg/mL (≈ 132 µM)
2 | CC[C@H]1OC(=O)[C@H](C)C(=O)[C@H](C)[C@@H](O[C@@H]2O[C@H](C)C[C@H](N(C)C)[C@H]2O)[C@](C)(OC)C[C@@H](C)C2=N[C@H](CN3CCN(C)CC3)CN3C(=O)O[C@@]1(C)[C@H]3[C@H]2C [Example 93] | > 100 | 0.78 (≈ 1.04 µM) | > 100 | > 100 | > 100 | > 100 | > 100 | 0.78 (≈ 1.04 µM) | 0.78 (≈ 1.04 µM) | 3.1 (≈ 4.13 µM) | 100 (≈ 133 µM) | 12.5 (≈ 16.7 µM) | 0.1 (≈ 0.133 µM) | 0.1 (≈ 0.133 µM) | 0.39 (≈ 0.52 µM) | 0.78 (≈ 1.04 µM) | > 100 | > 100 | > 100 | 0.02 (≈ 0.0267 µM) | MIC [14]: > 100 µg/mL; MIC [15]: > 100 µg/mL; MIC [16]: 3.1 µg/mL (≈ 4.13 µM); MIC [17]: 0.78 µg/mL (≈ 1.04 µM); MIC (ESCHERICHIA COLI JUHL): > 100 µg/mL; MIC (ESCHERICHIA COLI SS): 0.78 µg/mL (≈ 1.04 µM); MIC [18]: > 100 µg/mL; MIC [19]: 0.78 µg/mL (≈ 1.04 µM); MIC (ESCHERICHIA COLI DC-2): > 100 µg/mL; MIC [20]: 0.78 µg/mL (≈ 1.04 µM); MIC [21]: 0.02 µg/mL (≈ 0.0267 µM); MIC (ESCHERICHIA COLI KNK 437): > 100 µg/mL; MIC [22]: > 100 µg/mL
3 | CC[C@H]1OC(=O)[C@H](C)C(=O)[C@H](C)[C@@H](O[C@@H]2O[C@H](C)C[C@H](N(C)C)[C@H]2O)[C@](C)(OC)C[C@@H](C)C2=N[C@H](CN3CCOCC3)CN3C(=O)O[C@@]1(C)[C@H]3[C@H]2C [Example 95] | > 100 | 0.39 (≈ 0.529 µM) | > 100 | > 100 | > 100 | > 100 | > 100 | 0.39 (≈ 0.529 µM) | 0.39 (≈ 0.529 µM) | 0.39 (≈ 0.529 µM) | 50 (≈ 67.8 µM) | 3.1 (≈ 4.21 µM) | 0.1 (≈ 0.136 µM) | 0.1 (≈ 0.136 µM) | 0.2 (≈ 0.271 µM) | 0.39 (≈ 0.529 µM) | > 100 | > 100 | > 100 | 0.02 (≈ 0.0271 µM) | MIC [14]: > 100 µg/mL; MIC [15]: > 100 µg/mL; MIC [16]: 1.56 µg/mL (≈ 2.12 µM); MIC [17]: 0.39 µg/mL (≈ 0.529 µM); MIC (ESCHERICHIA COLI JUHL): 100 µg/mL (≈ 136 µM); MIC (ESCHERICHIA COLI SS): 0.39 µg/mL (≈ 0.529 µM); MIC [18]: > 100 µg/mL; MIC [19]: 0.39 µg/mL (≈ 0.529 µM); MIC (ESCHERICHIA COLI DC-2): > 100 µg/mL; MIC [20]: 0.39 µg/mL (≈ 0.529 µM); MIC [21]: 0.05 µg/mL (≈ 0.0678 µM); MIC (ESCHERICHIA COLI KNK 437): > 100 µg/mL; MIC [22]: > 100 µg/mL
